According to ChEMBL document CHEMBL1201862, “PubChem BioAssay data set” (2004):
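1) Cells in 96-well plates. 2) Compound, 48 h, 5 concentrations. 3) Linear interpolation between surrounding doses. 4) Unreached endpoint = highest concentration. The concentration for 50% growth inhibition is given as GI50.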 The source made the active and inactive calls. Cut-off read from the data, not from the text of the source: active = GI50 up to about 1.1 µM and inactive = higher.

What was measured:
Test in all cases: DTP human tumour cell line panel, 48 h
SF-295 = tested on: SF-295
OVCAR-3 = tested on: OVCAR-3
SN12C = tested on: SN12C
SK-MEL-5 = tested on: SK-MEL-5
COLO 205 = tested on: COLO 205
PC-3 = tested on: PC-3
RXF 393 = tested on: RXF 393
EKVX = tested on: EKVX
786-0 = tested on: 786-0
HL-60 = tested on: HL-60
SNB-75 = tested on: SNB-75
HOP-62 = tested on: HOP-62
NCI-H23 = tested on: NCI-H23
UO-31 = tested on: UO-31
KM12 = tested on: KM12
LOX IMVI = tested on: LOX IMVI
K562 = tested on: K562
SNB-19 = tested on: SNB-19
DU-145 = tested on: DU-145

Row | Structure (SMILES) | GI50 (SF-295) | GI50 (OVCAR-3) | GI50 (SN12C) | GI50 (SK-MEL-5) | GI50 (COLO 205) | GI50 (PC-3) | GI50 (RXF 393) | GI50 (EKVX) | GI50 (786-0) | GI50 (HL-60) | GI50 (SNB-75) | GI50 (HOP-62) | GI50 (NCI-H23) | GI50 (UO-31) | GI50 (KM12) | GI50 (LOX IMVI) | GI50 (K562) | GI50 (SNB-19) | GI50 (DU-145)
1 | COC(=O)C(CCSc1ccccc1)C(=O)OC | > 100 µM (inactive) | > 100 µM (inactive) | > 100 µM (inactive) | > 100 µM (inactive) | > 100 µM (inactive) | > 100 µM (inactive) | > 100 µM (inactive) | > 100 µM (inactive) | > 100 µM (inactive) | 79.3 µM (inactive) | > 100 µM (inactive) | > 100 µM (inactive) | > 100 µM (inactive) | > 100 µM (inactive) | > 100 µM (inactive) |  |  |  | 
2 | O=c1cc(NNCc2ccccc2)[nH]c(=O)[nH]1 | > 100 µM (inactive) | > 100 µM (inactive) | > 100 µM (inactive) | > 100 µM (inactive) | > 100 µM (inactive) | > 100 µM (inactive) | > 100 µM (inactive) | > 100 µM (inactive) | > 100 µM (inactive) | > 100 µM (inactive) |  | > 100 µM (inactive) | > 100 µM (inactive) | 74 µM (inactive) | > 100 µM (inactive) | > 100 µM (inactive) | > 100 µM (inactive) | > 100 µM (inactive) | > 100 µM (inactive)
3 | COc1cc(-c2ccccc2N)c2cccnc2c1OC | 1.54 µM (inactive) | 4.38 µM (inactive) | 3.93 µM (inactive) | 13 µM (inactive) | 6.38 µM (inactive) | 8.55 µM (inactive) | 15.2 µM (inactive) | 5.06 µM (inactive) | 2.83 µM (inactive) | 3.98 µM (inactive) |  | 5.26 µM (inactive) | 4.94 µM (inactive) | 3.8 µM (inactive) | 6.07 µM (inactive) | 3.4 µM (inactive) | 4.78 µM (inactive) | 4.75 µM (inactive) | 2.89 µM (inactive)
4 | Cc1c(O)c(=O)ccn1CCc1ccc(O)cc1 | 24.3 µM (inactive) | 11.2 µM (inactive) |  | 21.3 µM (inactive) | 31.5 µM (inactive) | 25.9 µM (inactive) |  | 20.4 µM (inactive) | 6.32 µM (inactive) | 33.5 µM (inactive) |  | 22.1 µM (inactive) | 35.7 µM (inactive) |  | 41.3 µM (inactive) | 20.5 µM (inactive) | 32.7 µM (inactive) | 15.6 µM (inactive) | 24.9 µM (inactive)
5 | c1ccc2c(c1)ccc1nc(-c3ccc4c(c3)OCO4)c3c(c12)CCCC3 | 12.2 µM (inactive) | 15.4 µM (inactive) | 26.1 µM (inactive) |  | 20.3 µM (inactive) | 8.75 µM (inactive) |  | 37.1 µM (inactive) | 26.1 µM (inactive) |  | 31.1 µM (inactive) | 41.9 µM (inactive) | 13.8 µM (inactive) | 20.9 µM (inactive) | 11.3 µM (inactive) |  | 16.3 µM (inactive) | 77.8 µM (inactive) | 
6 | CCOP(=O)(OCC)C(Cc1ccccc1)N=C(c1ccccc1)c1ccccc1 (stereo unspecified) | 12.3 µM (inactive) | 14.5 µM (inactive) | 16.7 µM (inactive) | 12.9 µM (inactive) | 14.3 µM (inactive) | 3.96 µM (inactive) |  | 18 µM (inactive) | 15.2 µM (inactive) | 16.3 µM (inactive) | 11.5 µM (inactive) | 17.6 µM (inactive) | 12.7 µM (inactive) | 11.5 µM (inactive) | 15.5 µM (inactive) | 11.6 µM (inactive) | 7.29 µM (inactive) | 14.6 µM (inactive) | 20.9 µM (inactive)
7 | O=C(O)c1nc2ccc(C(F)(F)F)cc2nc1NCc1ccc(Cl)c(Cl)c1 | 17.4 µM (inactive) | 7.78 µM (inactive) | 15.5 µM (inactive) | 21.4 µM (inactive) | 20.1 µM (inactive) | 15.3 µM (inactive) |  | 15.8 µM (inactive) | 15.9 µM (inactive) |  | 20.7 µM (inactive) | 14.8 µM (inactive) | 17.7 µM (inactive) | 13.4 µM (inactive) | 16.3 µM (inactive) | 15.1 µM (inactive) | 16.9 µM (inactive) | 12.6 µM (inactive) | 17 µM (inactive)
8 | O=c1oc2ccccc2c(-c2ccc(O)cc2)c1Oc1ccc(Cl)cc1 | 17 µM (inactive) | 14.9 µM (inactive) | 24 µM (inactive) | 18.3 µM (inactive) | 23.2 µM (inactive) | 25.8 µM (inactive) | 19.4 µM (inactive) | 16.8 µM (inactive) | 26.9 µM (inactive) |  | 18.7 µM (inactive) |  | 20.7 µM (inactive) | 18.1 µM (inactive) | 26.5 µM (inactive) | 24.7 µM (inactive) | 21 µM (inactive) | 22.4 µM (inactive) | 42.7 µM (inactive)
9 | c1cc(CSP234N5CCN2CCN3CCN4CC5)cc(CSP234N5CCN2CCN3CCN4CC5)c1 | 14.2 µM (inactive) | 32.3 µM (inactive) | 58.6 µM (inactive) | 16.3 µM (inactive) | 23 µM (inactive) | 25.3 µM (inactive) |  | 63.2 µM (inactive) | > 100 µM (inactive) | 3.56 µM (inactive) | 20.1 µM (inactive) | 28.6 µM (inactive) | 41.2 µM (inactive) | 13.9 µM (inactive) | 19.5 µM (inactive) | 16.1 µM (inactive) | < 0.01 µM (active) | 27.9 µM (inactive) | > 100 µM (inactive)
10 | c1ccc(NNC2=NCCN2)cc1 | 2.75 µM (inactive) | > 100 µM (inactive) | > 100 µM (inactive) | > 100 µM (inactive) | > 100 µM (inactive) | > 100 µM (inactive) |  | > 100 µM (inactive) | > 100 µM (inactive) | > 100 µM (inactive) | > 100 µM (inactive) | > 100 µM (inactive) | > 100 µM (inactive) | > 100 µM (inactive) | > 100 µM (inactive) | > 100 µM (inactive) | > 100 µM (inactive) | > 100 µM (inactive) | > 100 µM (inactive)
11 | CCOC(=O)C1(Cc2ccc3c(c2)CCC3)Cc2cc3c(cc2C1=O)CCC3 (stereo unspecified) | 48.3 µM (inactive) | > 100 µM (inactive) | 66.2 µM (inactive) | 20.1 µM (inactive) | 41.7 µM (inactive) | 16.1 µM (inactive) |  | 97.5 µM (inactive) | > 100 µM (inactive) | 2.84 µM (inactive) | 53.7 µM (inactive) | > 100 µM (inactive) | 49.4 µM (inactive) | 42.3 µM (inactive) | > 50.9 µM (inactive) | > 71.6 µM (inactive) | 9.95 µM (inactive) | > 100 µM (inactive) | 75.5 µM (inactive)
12 | COC(OC)C(O)C1OC=CC1n1cnc2c(N)ncnc21 (stereo unspecified) | > 100 µM (inactive) | > 100 µM (inactive) | > 100 µM (inactive) | > 100 µM (inactive) | > 100 µM (inactive) | > 100 µM (inactive) | 13 µM (inactive) | > 100 µM (inactive) | > 100 µM (inactive) |  | 18.3 µM (inactive) | > 100 µM (inactive) | > 100 µM (inactive) | 0.792 µM (active) | > 100 µM (inactive) | > 100 µM (inactive) | > 100 µM (inactive) |  | > 100 µM (inactive)
13 | NNC(=O)C1(NC(=O)c2ccccc2)C(c2ccccc2)C(c2ccccc2)=NN1c1ccccc1 (stereo unspecified) | 24.5 µM (inactive) | 18.1 µM (inactive) | 63.2 µM (inactive) | 30 µM (inactive) | 45.5 µM (inactive) | 24.4 µM (inactive) | 14.5 µM (inactive) | 42.3 µM (inactive) | 50.5 µM (inactive) |  | 30.2 µM (inactive) | 34 µM (inactive) | 54 µM (inactive) | 27.8 µM (inactive) | 35.1 µM (inactive) | 23.8 µM (inactive) | 27.2 µM (inactive) | 66.2 µM (inactive) | 72.6 µM (inactive)
14 | Cc1n[nH]c(=O)n1/N=C/c1ccc(Cl)cc1 | 46 µM (inactive) | 27.9 µM (inactive) | 70.6 µM (inactive) |  | 43.3 µM (inactive) |  | 22.3 µM (inactive) | 13.3 µM (inactive) | > 100 µM (inactive) |  | 41.2 µM (inactive) | 32.5 µM (inactive) | 27.9 µM (inactive) | 61.1 µM (inactive) | > 100 µM (inactive) |  | > 100 µM (inactive) | 61.9 µM (inactive) | 47.2 µM (inactive)
15 | C#CCCOC(=O)c1ccccc1OC(C)=O | > 100 µM (inactive) | > 100 µM (inactive) | > 100 µM (inactive) | > 100 µM (inactive) | > 100 µM (inactive) | > 100 µM (inactive) | > 100 µM (inactive) | > 100 µM (inactive) | > 100 µM (inactive) |  | > 100 µM (inactive) | 70.3 µM (inactive) | > 100 µM (inactive) | > 100 µM (inactive) | > 100 µM (inactive) | > 100 µM (inactive) | > 100 µM (inactive) | > 100 µM (inactive) | > 100 µM (inactive)
16 | O=C(CCCn1ccnc1[N+](=O)[O-])NCCn1ccnc1[N+](=O)[O-] | > 100 µM (inactive) | > 100 µM (inactive) | > 100 µM (inactive) | > 100 µM (inactive) | > 100 µM (inactive) | > 100 µM (inactive) |  | > 100 µM (inactive) | > 100 µM (inactive) | > 100 µM (inactive) | > 100 µM (inactive) | > 100 µM (inactive) | > 100 µM (inactive) | > 100 µM (inactive) | > 100 µM (inactive) | > 100 µM (inactive) | > 100 µM (inactive) | > 100 µM (inactive) | > 100 µM (inactive)
17 | COc1ccc(CCn2ccc(=O)c(O)c2C)cc1OC | 5.77 µM (inactive) |  |  | 13.5 µM (inactive) | 26.7 µM (inactive) | 56.2 µM (inactive) |  | 24.4 µM (inactive) | 5 µM (inactive) | 32.2 µM (inactive) |  | 17.5 µM (inactive) | 27.9 µM (inactive) |  | 40.3 µM (inactive) | 25.5 µM (inactive) | 37.1 µM (inactive) | 16 µM (inactive) | 12.4 µM (inactive)
